Test results taken from patent US10918891B2, “Cosmetic treatment method for the skin” (SYNTIVIA, priority 2016, dated 2021).

Experiments:
[1] = tested on: NativeSkin® skin explants (Genoskin); experiment: Histological analysis (haematoxylin/eosin) of NativeSkin skin explant ex vivo after UVA irradiation; format: cell-based, human; conditions: composition 0.9 mmol/L topical, 60 J/cm^2 UVA every day for 3 days, FIG. 5
Description: (§1) The test was carried out on NativeSkin® skin explants (Genoskin), a biopsy of skin bathed in a solid, nourishing matrix while its epidermal surface is preserved in contact with the air. The biopsy is firmly anchored in the matrix and sealed in order to prevent any lateral diffusion of formulation intended for topical application.
(§2) The study was carried out on a donor (phototype 2) under the following conditions.
(§3) The compounds tested are implemented in a composition containing them at 0.9 mmol/L in a mixture of Carbopol® (0.5% p/p), DMSO (0.1% p/p) and H2O (qsp 100%).
(§4) The samples are irradiated at 60 J/cm^2 UVA every day for 3 days. A treatment is carried out for 24 h before the irradiation, by application of the composition tested onto the sample (deposition of 40 μl of composition onto the stratum corneum), then a post-treatment of 24 h after the irradiation, in the same manner.
(§5) A Control of the sample of skin non-irradiated and a Control of the sample of skin irradiated are also carried out, both with application of the vehicle alone (0.5% Carbopol®, 0.1% DMSO, H2O). The Control of the non-irradiated sample of skin is introduced into the irradiator in a sheet of aluminium, in such a way as to protect it against UVs.
(§6) The samples are sampled, cut (according to the conventional method of cryo-sectioning implementing paraffin and freezing) and fixed in 1 ml of formalin for 24 h.
(§7) The explants are then included in paraffin and sections of 5 μm are made.
The slides are then coloured with haematoxylin (basic compound marking the nuclei) and eosin (acidic compound marking the conjunctive tissue).
(§8) The analysis of the marking is carried out with a DM5000B fluorescence microscope (Leica Microsystems) and 10 images are acquired for each sample.

[2] = tested on: NativeSkin® skin explants (Genoskin); experiment: Breaks in the DNA (γ-H2AX marking) of NativeSkin skin explant ex vivo after UVA irradiation; format: cell-based, human; conditions: composition 0.9 mmol/L topical, 60 J/cm^2 UVA every day for 3 days, n=10 images, FIG. 7
Description: as §1, §2, §3, §4, §5, §6, §7
The slides obtained are also marked by immunohistochemistry with the biomarker γ-H2Ax.
as §8
For the marking with γ-H2Ax, for each image, the total number of nuclei is detected with 4′,6-diamidino-2-phenylindole (dapi). In the same image, the number of nuclei having the marking is quantified. The ratio of the number of positive nuclei, multiplied by 100, to the number of total nuclei, is calculated, in order to obtain a percentage (=(positive nuclei*100)/total nuclei), n=10 per sample.
A statistical analysis is carried out with a student's test by comparing the samples to the control (p value[…], p value<0.05**, p value<0.005***, ns not significant).

IL-8 = IL-8 assay (ELISA) in culture supernatants of NHEK after induction with IL-1β; format: cell-based, human; conditions: IL-1β 10 ng/ml 24 h, then substance 24 h, compound (Ia) 3 ppm, dexamethasone 0.4 ppm, CTL 0.23, CTL without IL-1β 0.06
Description: This study is carried out on normal human Keratinocytes (NHEK).
In this example, the anti-inflammatory properties of the compound (Ia) are evaluated by the assay of the IL-8, after the application of the cytokine IL-1β at 10 ng/ml onto NHEKs. IL-8 is a major inflammatory cytokine produced first of all during the inflammatory response of the keratinocytes. The quantification of the IL-8 in the culture supernatants allows an evaluation of the inflammatory state of the cells.
The IL-1β is added to the culture medium of the NHEKs at a rate of 10 ng/ml for 24 h. After incubation, the culture media are removed and replaced with culture media containing the compound (Ia) at 3 ppm. After 24 h of incubation, the supernatants are collected.
The reference anti-inflammatory element is dexamethasone (Sigma) used at 0.4 ppm. A control having undergone the same experimental conditions without the compound (Ia) (CTL), as well as a non-induced control (CTL without IL-1β), are also carried out.
The quantification of the IL-8 in 50 μl of the culture supernatants is measured by an ELISA test (human CXCL8/IL-8 Immunoassay, R&D Systems).
Each treatment is carried out in triplicate.

NHEK cells = experiment: Survival (WST1) of NHEK keratinocytes exposed to cigarette extract, comparison with caffeic acid; format: cell-based, human; conditions: compound 10 ppm pretreatment 24 h and treatment 24 h, cigarette extract 1/50, cigarette extract alone 55% survival, FIG. 4
Description: This study aims to compare the protective or repairing effect of the compounds according to the invention (Ia) and (Ib) with respect to the damage induced on the skin by a cigarette extract. For comparison, caffeic acid (supplier: Acros) is also tested. This acid forms a basic unit of the compounds (Ia) and (Ib) according to the invention.
The NHEK cells are inoculated in a 96-well plate in a suitable medium (Promocell), at a rate of 9000 cells per well, and incubated 24 h at 37° C. and 5% carbon dioxide.
The compounds to be tested are prepared as follows: • (Ia): 10 mg of compound+909 μL of DMSO • (Ib): 7 mg of compound+636 μL of DMSO • caffeic acid: 10 mg of compound+909 μL of DMSO
Each stock solution above is diluted 1000 times, to 10 ppm in the culture medium, then the solutions obtained are filtered by means of a nylon filter (0.22 μm). The final solutions are concentrated to 10 ppm in 0.1% DMSO.
Solutions at 20 ppm in 0.2% DMSO are also prepared in a similar manner, for dilution in the cigarette extract.
An extract of 20 cigarettes is prepared as indicated in example 14 above. This extract is then diluted to 1/50 in the culture medium; or to 2/50 in the culture medium, then to 1/2 in the culture medium, to which the compound to be tested is added at 20 ppm.
The cells are pretreated for 24 h with the compound to be tested at 10 ppm in the culture medium.
The cells are then treated with the cigarette extract diluted to 1/50th with or without the compound tested at 10 ppm for 24 h.
3 h before the end of the test, 10 μl of WST1 cellular proliferation reactant (Roche) are added into each well. The absorbance at 450 nm is measured before and after the addition of WST1 reactant, by means of a Multiskan® reader. The treated cells are compared to the untreated cells and to the cells exposed to the cigarette extract.

[3] = tested on: normal human Keratinocytes (NHEK); experiment: Reactive oxygen species (H2DCFDA probe) in NHEK after single UVA stress; format: cell-based; conditions: 24 h incubation; (Ia) 3 ppm, Trolox 20 ppm, Quercetin 18 ppm; UVA 10 J/cm2; normalised to viability (MTS); CTL UVA 289687.6, CTL without stress 16441.9
Description: The cells used for this example are normal human Keratinocytes (NHEK).
The antioxidant properties (neutralising the production of reactive oxygen species) of the compound (Ia) are evaluated after a single stress with UVAs on NHEKs, by a test based on the use of the fluorescent probe H2DCFDA on a triple culture.
H2DCFDA (2′-7′dichlorodihydrofluorescein diacetate, Fischer Scientific) is a probe that, after having diffused into the cell and after its acetate group has been split by intracellular esterases, can be oxidised by free radicals (H2O2) into DCF (2′-7′ dichlorofluorescein), a fluorescent compound. The production of the free radicals can thus be quantified by the level of fluorescence emitted by the oxidised probe. The more the cell produces free radicals, the higher the level of fluorescence detected.
After 24 hours of incubation with the compound (Ia) (3 ppm in an aqueous solution with 0.1% dimethylsulfoxide) or the reference elements, the cells are placed in the presence of the H2DCFDA probe at 3 ppm for 1 hour at 37° C., 5% CO2 in order to allow its intracellular diffusion.
The reference antioxidant elements are: Trolox ([…], Sigma), at 20 ppm and Quercetin (quercetin dihydrate, Sigma), at 18 ppm.
After one rinsing, the cells are subjected to a single stress with UVAs (in the absence of compound (Ia)) at a rate of 10 joules per square centimetre. The quantification of the fluorescence emitted (excitation: 485 nm; emission: 520 nm) is carried out immediately after the end of the UVA stress. […]
In order to provide a result representative of the cellular population of each condition after a single stress with UVAs, a cellular viability test (MTS) is carried out immediately after the quantification of the fluorescence emitted. The fluorescence values are thus normalised with respect to the cellular viabilities in order for it to be possible to compare the levels of fluorescence of the various conditions to each other.

COc1ccc(/C=C/C(=O)NCc2c(CO)cnc(C)c2O)cc1O [Compound (Ic), (E)-3-(3-hydroxy-4-methoxyphenyl)-N-((3-hydroxy-5-(hydroxymethyl)-2-methylpyridin-4-yl)-methyl)-acrylamide]
Morphology of the epidermis after UVA irradiation (histological analysis) [1]: totally protected
percentage of nuclei positive for marking with γ-H2AX, compared with controls [2]: same phenotype as the non-irradiated control sample

Cc1ncc(CO)c(CN)c1O [pyridoxamine, reference compound]
Morphology of the epidermis after UVA irradiation (histological analysis) [1]: phenotype of the irradiated sample is also found
percentage of nuclei positive for marking with γ-H2AX, compared with controls [2]: level similar to the irradiated sample

Cc1ncc(CO)c(CNC(=O)/C=C/c2ccc(O)cc2)c1O [Compound (Id), (E)-N-((3-hydroxy-5-(hydroxymethyl)-2-methylpyridin-4-yl)-methyl)-3-(4-hydroxyphenyl)-acrylamide]
Morphology of the epidermis after UVA irradiation (histological analysis) [1]: partly protected
percentage of nuclei positive for marking with γ-H2AX, compared with controls [2]: clearly reduced with respect to the irradiated control sample

C[C@@H]1C[C@H]2[C@@H]3CCC4=CC(=O)C=C[C@]4(C)[C@@]3(F)[C@@H](O)C[C@]2(C)[C@@]1(O)C(=O)CO [Dexamethasone, dexamethasone, reference compound]
Quantification of the IL8 (optical density) (IL-8): 0.13 optical density

O=C(O)/C=C/c1ccc(O)c(O)c1 [caffeic acid, reference compound]
% survival of the cells (NHEK cells): 73%
Morphology of the epidermis after UVA irradiation (histological analysis) [1]: phenotype of the irradiated sample is also found
percentage of nuclei positive for marking with γ-H2AX, compared with controls [2]: level similar to the irradiated sample

COc1cc(/C=C/C(=O)NCc2c(CO)cnc(C)c2O)ccc1O [Compound (Ib), (E)-3-(4-hydroxy-3-methoxyphenyl)-N-((3-hydroxy-5-(hydroxymethyl)-2-methylpyridin-4-yl)-methyl)-acrylamide]
% survival of the cells (NHEK cells): 76%

O.O.O=c1c(O)c(-c2ccc(O)c(O)c2)oc2cc(O)cc(O)c12 [Quercetin, quercetin dihydrate, reference compound]
Assay of the fluorescence with H2DCFDA after irradiation of NHEKs with UVAs [3]: 207589.6

Cc1ncc(CO)c(CNC(=O)CCCC[C@@H]2CCSS2)c1O [Comp.1, reference compound]
Morphology of the epidermis after UVA irradiation (histological analysis) [1]: phenotype of the irradiated sample is also found
percentage of nuclei positive for marking with γ-H2AX, compared with controls [2]: level similar to the irradiated sample
